Experiments:
JAK3 = JAK3 (Homo sapiens, UniProt P52333); assay: Kinase inhibition assay; type: biochemical
HDAC6 = biological target: T1, HDAC6 (Homo sapiens, UniProt Q9UBN7); assay: In vitro HDAC enzyme assay; type: biochemical
T1 sequence (Q9UBN7 1-1215): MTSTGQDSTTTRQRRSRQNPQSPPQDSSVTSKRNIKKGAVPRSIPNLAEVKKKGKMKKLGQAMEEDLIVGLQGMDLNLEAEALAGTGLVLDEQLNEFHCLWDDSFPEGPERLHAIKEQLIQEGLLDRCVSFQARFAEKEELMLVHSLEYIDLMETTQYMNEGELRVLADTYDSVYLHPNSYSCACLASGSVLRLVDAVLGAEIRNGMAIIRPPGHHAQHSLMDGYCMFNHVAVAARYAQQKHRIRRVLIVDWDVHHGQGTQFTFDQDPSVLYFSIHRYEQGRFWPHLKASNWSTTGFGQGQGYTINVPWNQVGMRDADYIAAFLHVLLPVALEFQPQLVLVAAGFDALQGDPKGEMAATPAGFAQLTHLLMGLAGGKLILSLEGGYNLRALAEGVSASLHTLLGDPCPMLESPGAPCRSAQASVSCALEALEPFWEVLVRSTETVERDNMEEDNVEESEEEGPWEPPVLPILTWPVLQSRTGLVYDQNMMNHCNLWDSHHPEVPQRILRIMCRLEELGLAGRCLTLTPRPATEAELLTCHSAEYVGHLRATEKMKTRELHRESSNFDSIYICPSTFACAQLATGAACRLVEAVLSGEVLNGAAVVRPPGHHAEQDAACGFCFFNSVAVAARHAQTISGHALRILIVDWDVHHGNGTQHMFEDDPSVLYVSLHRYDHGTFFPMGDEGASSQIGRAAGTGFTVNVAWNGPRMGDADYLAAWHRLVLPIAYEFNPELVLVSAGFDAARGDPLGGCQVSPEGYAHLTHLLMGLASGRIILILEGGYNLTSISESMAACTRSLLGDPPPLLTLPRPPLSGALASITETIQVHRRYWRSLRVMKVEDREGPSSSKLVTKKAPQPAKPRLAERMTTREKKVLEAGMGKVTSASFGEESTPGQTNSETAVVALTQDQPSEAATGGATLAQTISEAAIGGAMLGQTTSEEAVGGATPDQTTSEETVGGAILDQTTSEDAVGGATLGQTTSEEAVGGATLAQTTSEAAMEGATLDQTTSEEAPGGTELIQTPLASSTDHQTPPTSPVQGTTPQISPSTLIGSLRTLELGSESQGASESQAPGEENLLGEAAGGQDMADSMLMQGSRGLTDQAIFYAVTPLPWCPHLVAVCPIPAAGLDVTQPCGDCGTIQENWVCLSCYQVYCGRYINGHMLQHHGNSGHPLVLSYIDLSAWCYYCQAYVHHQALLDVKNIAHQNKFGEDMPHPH

EKVX = assay: NCI-60 screening, EKVX; type: cell-based; conditions: Homo sapiens, read-out: GI50, EKVX
SNB-75 = assay: NCI-60 screening, SNB-75; type: cell-based; conditions: Homo sapiens, SNB-75, read-out: GI50, SNB-75
UACC-62 = assay: NCI-60 screening, UACC-62; type: cell-based; conditions: Homo sapiens, UACC-62, read-out: GI50, UACC-62
ACHN = assay: NCI-60 screening, ACHN; type: cell-based; conditions: Homo sapiens, read-out: GI50, ACHN
MDA-MB-231/ATCC = assay: NCI-60 screening, MDA-MB-231/ATCC; type: cell-based; conditions: Homo sapiens, MDA-MB-231, read-out: GI50, MDA-MB-231/ATCC

Sequence of JAK3 (P52333 whole entry): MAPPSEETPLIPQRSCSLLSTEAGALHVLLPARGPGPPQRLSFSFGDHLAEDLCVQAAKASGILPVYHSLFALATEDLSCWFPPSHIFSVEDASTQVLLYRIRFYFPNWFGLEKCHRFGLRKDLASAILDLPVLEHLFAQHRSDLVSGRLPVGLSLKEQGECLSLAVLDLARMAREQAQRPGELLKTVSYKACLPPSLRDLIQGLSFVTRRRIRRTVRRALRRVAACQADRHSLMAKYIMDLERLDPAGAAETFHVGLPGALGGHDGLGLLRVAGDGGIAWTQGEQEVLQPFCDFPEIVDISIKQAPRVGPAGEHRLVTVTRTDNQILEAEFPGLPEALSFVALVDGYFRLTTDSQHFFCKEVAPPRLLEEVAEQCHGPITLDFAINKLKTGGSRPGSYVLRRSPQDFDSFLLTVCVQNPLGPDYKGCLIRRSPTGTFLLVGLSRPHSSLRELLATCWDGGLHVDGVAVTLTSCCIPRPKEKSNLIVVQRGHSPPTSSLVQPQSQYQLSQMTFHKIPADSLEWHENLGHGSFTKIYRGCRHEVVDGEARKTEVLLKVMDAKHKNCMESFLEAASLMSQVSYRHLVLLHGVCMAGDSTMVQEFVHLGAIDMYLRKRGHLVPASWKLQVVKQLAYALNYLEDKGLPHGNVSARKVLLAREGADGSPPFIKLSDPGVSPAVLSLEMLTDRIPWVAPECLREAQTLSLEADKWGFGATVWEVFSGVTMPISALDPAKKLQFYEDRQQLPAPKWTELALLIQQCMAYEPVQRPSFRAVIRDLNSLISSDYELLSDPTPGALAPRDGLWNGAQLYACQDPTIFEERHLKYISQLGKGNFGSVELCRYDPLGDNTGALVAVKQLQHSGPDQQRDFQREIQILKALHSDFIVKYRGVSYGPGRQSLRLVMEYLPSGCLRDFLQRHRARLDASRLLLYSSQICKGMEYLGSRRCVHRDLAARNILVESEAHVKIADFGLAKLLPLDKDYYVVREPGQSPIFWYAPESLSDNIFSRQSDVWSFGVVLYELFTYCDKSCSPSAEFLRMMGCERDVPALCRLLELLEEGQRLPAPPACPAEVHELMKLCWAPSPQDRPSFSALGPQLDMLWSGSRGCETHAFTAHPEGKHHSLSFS

IC50 (JAK3): > 10000 nM
JAK3 IC50 (JAK3; duplicate, SD <15%): very poor inhibitory activities
IC50 (HDAC6): 4.3 ± 0.1 nM
SMILES: O=C(NO)c1ccc(CNc2nc3cccc(-c4ccc5c(c4)OCO5)n3n2)cc1 [Compound 19, 4-(((5-(Benzo[d][1, 3]dioxol-5-yl)-[1,2, 4]triazolo[1,5-a]pyridin-2-yl)amino)methyl)-N-hydroxybenzamide]
GI50 (EKVX): 780 nM
GI50 (SNB-75): 350 nM
GI50 (UACC-62): 420 nM
GI50 (ACHN): 550 nM
GI50 (MDA-MB-231/ATCC): 690 nM

From publication PMC11463018 (Journal of Enzyme Inhibition and Medicinal Chemistry, 2024)
